From ChEMBL document CHEMBL4266042, “Total Synthesis of Norsampsones A and B, Garcinielliptones N and O, and Hyperscabrin A” (J Nat Prod, 2018)

Test system: SNU1
Assay: Cytotoxicity against human SNU1 cells after 3 to 5 days by CellTiter-Glo assay
Assay type: functional, cell-based

Q: How did the IC50 turn out when CC(C)=CCCC(=O)[C@]1(CC=C(C)C)C[C@H](CC=C(C)C)C(C)(C)[C@H](C(=O)c2ccccc2)C1=O was run?
A: > 10 µM

Q: How did the IC50 turn out when COC(=O)[C@]1(CC=C(C)C)C[C@H](CC=C(C)C)C(C)(C)[C@@H](C(=O)C(C)C)C1=O was run?
A: > 10 µM

Q: Which IC50 does the source give for CC(C)=CC[C@@H]1C[C@H](CC=C(C)C)C(C)(C)[C@H](C(=O)C(C)C)C1=O here?
A: > 10 µM

Q: For CC(C)=CC[C@@H]1C[C@H](CC=C(C)C)C(C)(C)[C@@H](C(=O)C(C)C)C1=O, which IC50 is on record?
A: > 10 µM

Q: Which IC50 does the source give for CC(C)=CCCC(=O)[C@]1(CC=C(C)C)C[C@H](CC=C(C)C)C(C)(C)[C@@H](C(=O)c2ccccc2)C1=O here?
A: > 10 µM

Q: For COC(=O)[C@@]1(CC=C(C)C)C[C@H](CC=C(C)C)C(C)(C)[C@H](C(=O)C(C)C)C1=O, which IC50 is on record?
A: > 10 µM

Q: How did the IC50 turn out when COC(=O)[C@]1(CC=C(C)C)C[C@H](CC=C(C)C)C(C)(C)[C@H](C(=O)C(C)C)C1=O was run?
A: > 10 µM

Test system: 786-0
Assay: Cytotoxicity against human 786-O cells after 3 to 5 days by CellTiter-Glo assay
Assay type: functional, cell-based

Q: CC(C)=CCCC(=O)[C@]1(CC=C(C)C)C[C@H](CC=C(C)C)C(C)(C)[C@H](C(=O)c2ccccc2)C1=O was tested. Which IC50 did it give?
A: > 10 µM

Q: COC(=O)[C@]1(CC=C(C)C)C[C@H](CC=C(C)C)C(C)(C)[C@@H](C(=O)C(C)C)C1=O was tested. Which IC50 did it give?
A: > 10 µM

Q: CC(C)=CC[C@@H]1C[C@H](CC=C(C)C)C(C)(C)[C@H](C(=O)C(C)C)C1=O was tested. Which IC50 did it give?
A: > 10 µM

Q: For CC(C)=CC[C@@H]1C[C@H](CC=C(C)C)C(C)(C)[C@@H](C(=O)C(C)C)C1=O, which IC50 is on record?
A: > 10 µM

Q: CC(C)=CCCC(=O)[C@]1(CC=C(C)C)C[C@H](CC=C(C)C)C(C)(C)[C@@H](C(=O)c2ccccc2)C1=O was tested. Which IC50 did it give?
A: > 10 µM

Q: COC(=O)[C@@]1(CC=C(C)C)C[C@H](CC=C(C)C)C(C)(C)[C@H](C(=O)C(C)C)C1=O was tested. Which IC50 did it give?
A: > 10 µM

Q: How did the IC50 turn out when COC(=O)[C@]1(CC=C(C)C)C[C@H](CC=C(C)C)C(C)(C)[C@H](C(=O)C(C)C)C1=O was run?
A: > 10 µM

Test system: A549
Assay: Cytotoxicity against human A549 cells after 3 to 5 days by CellTiter-Glo assay
Assay type: functional, cell-based

Q: Which IC50 does the source give for CC(C)=CCCC(=O)[C@]1(CC=C(C)C)C[C@H](CC=C(C)C)C(C)(C)[C@H](C(=O)c2ccccc2)C1=O here?
A: > 10 µM

Q: COC(=O)[C@]1(CC=C(C)C)C[C@H](CC=C(C)C)C(C)(C)[C@@H](C(=O)C(C)C)C1=O was tested. Which IC50 did it give?
A: > 10 µM

Q: For CC(C)=CC[C@@H]1C[C@H](CC=C(C)C)C(C)(C)[C@H](C(=O)C(C)C)C1=O, which IC50 is on record?
A: > 10 µM

Q: With CC(C)=CC[C@@H]1C[C@H](CC=C(C)C)C(C)(C)[C@@H](C(=O)C(C)C)C1=O as the compound, how does the IC50 read?
A: > 10 µM

Q: For CC(C)=CCCC(=O)[C@]1(CC=C(C)C)C[C@H](CC=C(C)C)C(C)(C)[C@@H](C(=O)c2ccccc2)C1=O, which IC50 is on record?
A: > 10 µM

Q: How did the IC50 turn out when COC(=O)[C@@]1(CC=C(C)C)C[C@H](CC=C(C)C)C(C)(C)[C@H](C(=O)C(C)C)C1=O was run?
A: > 10 µM

Q: COC(=O)[C@]1(CC=C(C)C)C[C@H](CC=C(C)C)C(C)(C)[C@H](C(=O)C(C)C)C1=O was tested. Which IC50 did it give?
A: > 10 µM

Test system: KMS-11
Assay: Cytotoxicity against human KMS11 cells after 3 to 5 days by CellTiter-Glo assay
Assay type: functional, cell-based

Q: How did the IC50 turn out when CC(C)=CCCC(=O)[C@]1(CC=C(C)C)C[C@H](CC=C(C)C)C(C)(C)[C@H](C(=O)c2ccccc2)C1=O was run?
A: > 10 µM

Q: Which IC50 does the source give for COC(=O)[C@]1(CC=C(C)C)C[C@H](CC=C(C)C)C(C)(C)[C@@H](C(=O)C(C)C)C1=O here?
A: > 10 µM

Q: For CC(C)=CC[C@@H]1C[C@H](CC=C(C)C)C(C)(C)[C@H](C(=O)C(C)C)C1=O, which IC50 is on record?
A: > 10 µM

Q: For CC(C)=CC[C@@H]1C[C@H](CC=C(C)C)C(C)(C)[C@@H](C(=O)C(C)C)C1=O, which IC50 is on record?
A: > 10 µM

Q: How did the IC50 turn out when CC(C)=CCCC(=O)[C@]1(CC=C(C)C)C[C@H](CC=C(C)C)C(C)(C)[C@@H](C(=O)c2ccccc2)C1=O was run?
A: > 10 µM

Q: For COC(=O)[C@@]1(CC=C(C)C)C[C@H](CC=C(C)C)C(C)(C)[C@H](C(=O)C(C)C)C1=O, which IC50 is on record?
A: > 10 µM

Q: COC(=O)[C@]1(CC=C(C)C)C[C@H](CC=C(C)C)C(C)(C)[C@H](C(=O)C(C)C)C1=O was tested. Which IC50 did it give?
A: > 10 µM
